One assay deals with PKC delta kinase (Homo sapiens, UniProt Q05655). Put plainly: PKC Delta (coupled enzyme assay).
Sequence of PKC delta kinase (Q05655 whole entry): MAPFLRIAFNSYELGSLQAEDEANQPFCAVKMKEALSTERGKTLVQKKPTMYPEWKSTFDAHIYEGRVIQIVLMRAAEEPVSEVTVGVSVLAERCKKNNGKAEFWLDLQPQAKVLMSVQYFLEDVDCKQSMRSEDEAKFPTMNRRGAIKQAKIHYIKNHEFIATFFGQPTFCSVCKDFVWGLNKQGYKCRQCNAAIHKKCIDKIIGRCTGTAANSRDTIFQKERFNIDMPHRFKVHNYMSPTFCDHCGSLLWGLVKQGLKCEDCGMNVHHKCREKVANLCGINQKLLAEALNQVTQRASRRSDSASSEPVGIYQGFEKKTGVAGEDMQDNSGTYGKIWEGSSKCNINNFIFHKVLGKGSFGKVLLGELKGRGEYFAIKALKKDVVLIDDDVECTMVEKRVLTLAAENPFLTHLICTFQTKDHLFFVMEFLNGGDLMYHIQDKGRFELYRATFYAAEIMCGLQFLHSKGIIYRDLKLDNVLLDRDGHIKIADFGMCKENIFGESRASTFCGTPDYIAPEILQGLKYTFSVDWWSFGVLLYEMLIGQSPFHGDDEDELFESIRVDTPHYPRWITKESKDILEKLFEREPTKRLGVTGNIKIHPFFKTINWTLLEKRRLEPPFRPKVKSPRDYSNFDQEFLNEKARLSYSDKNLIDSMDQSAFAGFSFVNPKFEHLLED
Settings: not given
It counts as biochemical. The procedure: An assay buffer solution was prepared which consisted of 100 mM HEPES (pH 7.5), 10 mM MgCl2, 25 mM NaCl, 0.1 mM EDTA and 0.01% Brij. […] To 16 μL of this enzyme buffer, in a 384 well plate, was added 1 μL of VRT stock solution in DMSO. The mixture was allowed to equilibrate for 10 mins at 30° C. […] Ki values were calculated from initial rate data by non-linear regression using the Prism software package (Prism 4.0a, Graphpad Software, San Diego, Calif.).
Turning to `CN1CCCN(c2cccc(C(=O)c3cccnc3N)n2)CC1` [compound 82], the Ki lay in the range of 500 to 2800 nM.

Staying with this assay, now noted: 150 μM ATP, 46 nM PKC delta; read-out: Ki PKC delta.
For the molecule `CCC(=O)N1CCCN(c2cccc(C(=O)c3cccnc3N)n2)CC1` [compound 20], the Ki was 500 to 2800 nM.
Same read-out and setting: next, `Nc1ncccc1C(=O)c1cccc(N2CCCN(C(=O)CC(F)(F)F)CC2)n1` [compound 23]: 50 to 500 nM.
Same read-out and setting: for `Cc1ccsc1C(=O)N1CCCN(c2cccc(C(=O)c3cccnc3N)n2)CC1` [compound 27] the value was 500 to 2800 nM; for `Nc1ncc(Br)cc1C(=O)c1cccc(N2CCCN(C(=O)Cc3cccc(O)c3)CC2)n1` [compound 70], 500 to 2800 nM; for `CC(C)C(=O)N1CCCN(c2cccc(C(=O)c3cc(Br)cnc3N)n2)CC1` [compound 71], 500 to 2800 nM.
Still for that read-out and setting: for `CC(C)(C)CCN1CCCN(c2cccc(C(=O)c3cc(Br)cnc3N)n2)CC1` [compound 76] the value was 500 to 2800 nM.
`CC1CCCCC1C(=O)N1CCCN(c2cccc(C(=O)c3cccnc3N)n2)CC1` (stereo not shown) [compound 93]: the Ki is more than 2800 nM.
For `CCc1cnc(N)c(C(=O)c2cccc(N3CCCNCC3)n2)c1` [compound 105], the Ki lay in the range of 50 to 500 nM.
Same read-out and setting: next, `Cc1ccsc1CN1CCCN(c2cccc(C(=O)c3cccnc3N)n2)CC1` [compound 106]: 500 to 2800 nM.
On the same count and under the same terms, for `Nc1ncc(Br)cc1C(=O)c1cccc(N2CCCN(CC3CC3)CC2)n1` [compound 113] the value was 50 to 500 nM; for `CCN1CCCN(c2cccc(C(=O)c3cc(Br)cnc3N)n2)CC1` [compound 115], 50 to 500 nM.
Same read-out and setting: for `CC(C)N1CCCN(c2cccc(C(=O)c3cccnc3N)n2)CC1` [compound 116] the value was 50 to 500 nM.
Take `Nc1ncccc1C(=O)c1cccc(N2CCCN(CC3CC3)CC2)n1` [compound 117]: the Ki is 50 to 500 nM.
Take `Nc1ncccc1C(=O)c1cccc(N2CCCN(CCc3ccccc3)CC2)n1` [compound 120]: the Ki lay within 500 to 2800 nM.
Regarding `Nc1ncc(Br)cc1C(=O)c1cccc(N2CCC(N3CCCC3)CC2)n1` [compound 121], the Ki is 50 to 500 nM.
Same read-out and setting: next, `CC(C)(C)CN1CCCN(c2cccc(C(=O)c3cccnc3N)n2)CC1` [compound 126]: 500 to 2800 nM; `Nc1ncc(Br)cc1C(=O)c1nc(N2CCC(N)CC2)cs1` [compound 134]: 50 to 500 nM.
Same read-out and setting: next, `COCC#Cc1cnc(N)c(C(=O)c2cccc(N3CCCNCC3)n2)c1` [compound 138]: 50 to 500 nM; `Nc1ncc(C(F)(F)F)cc1C(=O)c1cccc(N2CCCNCC2)n1` [compound 140]: 50 to 500 nM.
Still for that read-out and setting: for `Cn1cc(-c2cccc(C(=O)c3cccnc3N)n2)cn1` [compound 292] the value was more than 2800 nM; for `Nc1ncccc1C(=O)c1nc(OCCC(N)c2ccccc2)ccc1C(F)(F)F` (stereo not shown) [compound 427], 50 to 500 nM.
`CCC1CN(c2ccc(C(F)(F)F)c(C(=O)c3cccnc3N)n2)CCN1` (stereo not shown) [compound 432]: the Ki is 50 to 500 nM.
The same measure, in the same setting: next, `CCCC1CN(c2ccc(C(F)(F)F)c(C(=O)c3cccnc3N)n2)CCN1` (stereo not shown) [compound 434]: 50 to 500 nM.
Same read-out and setting: for `CCCC1CN(c2ccc(C(F)(F)F)c(C(=O)c3cccnc3N)n2)CCCN1` (stereo not shown) [compound 437] the value was 50 to 500 nM; for `CCC(N)(COc1ccc(C(F)(F)F)c(C(=O)c2cccnc2N)n1)c1ccccc1` (stereo not shown) [compound 440], 50 to 500 nM; for `Nc1ncccc1C(=O)c1nc(N2CCNC(CC3CC3)C2)ccc1C(F)(F)F` (stereo not shown) [compound 441], 50 to 500 nM.
On the same count and under the same terms, for `Nc1ncccc1C(=O)c1nc(N2CCNC(C3CC3)C2)ccc1C(F)(F)F` (stereo not shown) [compound 442] the value was 50 to 500 nM; for `CC(C)CC(C)(N)CNc1ccc(C(F)(F)F)c(C(=O)c2cccnc2N)n1` (stereo not shown) [compound 443], 50 to 500 nM; for `CCC(N)(CNc1ccc(C(F)(F)F)c(C(=O)c2cccnc2N)n1)c1ccccc1` (stereo not shown) [compound 444], 50 to 500 nM.
Consider `Nc1ncccc1C(=O)c1nc(N2CCN[C@@H](c3ccccc3)C2)ccc1C(F)(F)F` [compound 448], for which the Ki fell in the range of 50 to 500 nM.

Source of the values: US8741931B2, “Kinase inhibitors” (priority 2007, dated 2014).
